Reference: patent US10532066B2, “Surfactant lipids, compositions thereof, and uses thereof” (National Jewish Health, priority 2007, dated 2020)

Key:
MD-2 binding to sTLR4 = biological target: T1, MD-2 binding to sTLR4 (Homo sapiens, UniProt Q9Y6Y9); assay: Phospholipid competition for MD-2-sTLR4 binding
T1 construct: made in house; host or cells: baculovirus-insect cell expression system
Procedure: CD14 (2 μg) or sTLR4 (100 ng) in aliquots of 20 μl of buffer B were pipeted onto a 96-well plate, and the solvent evaporated using a warm air dryer. […] The amount of bound LBP or MD-2 was detected using specific antibodies.

TLR4 = assay: TLR agonist TNFα production in RAW 264.7 cells, TLR4; assay type: cell-based; settings: lipopolysaccharide, 24 h
Procedure: In this experiment, multiple TLRs were stimulated with defined TLR agonists for 24 h and the TNFα production was measured. In each case, the maximal stimulation by agonist is set at 100% and the antagonism by POPG is expressed as the relative % response. The Controls consist of no treatment, or treatment with POPG in the absence of agonist as indicated. The agonists for the TLRs consist of Pam3Cys for TLR1/2, Mycoplasma pneumoniae membranes as an agonist for TLR2, mycoplasma derived MALP2 as an agonist for TLR 2/6, double stranded RNA (poly IC) for TLR3, Gram-negative lipopolysaccharide for TLR4, and CpG rich DNA as an agonist for TLR9. The TLR4 panel also contains the antagonist polymyxin B (PB) for comparison with POPG.

TLR7 = assay: TLR agonist IL-8 production in primary human neutrophils, TLR7; assay type: cell-based; settings: polyU, 5-24 h
Procedure: In this experiment, multiple TLRs were stimulated with defined TLR agonists for 5-24 h as indicated, and the IL-8 production was measured. In each case the maximal stimulation by agonist is set at 100% and the antagonism by POPG is expressed as the relative % response. The Controls consist of no treatment, or treatment with POPG, in the absence of agonist as indicated. The agonists for the TLRs consist of Pam3Cys for TLR1/2, double stranded RNA (poly IC) for TLR3, Gram-negative lipopolysaccharide (LPS) for TLR4, and single stranded RNA (polyU) for TLR7/8.

T1 sequence (Q9Y6Y9 19-160): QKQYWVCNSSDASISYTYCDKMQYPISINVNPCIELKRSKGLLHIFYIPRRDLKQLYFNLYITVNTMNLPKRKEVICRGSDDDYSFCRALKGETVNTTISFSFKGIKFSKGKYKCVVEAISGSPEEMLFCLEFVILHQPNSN

Compound: CCCCCCCC/C=C\CCCCCCCC(=O)O[C@H](COC(=O)CCCCCCCCCCCCCCC)COP(=O)(O)OCC(O)CO (stereo partly shown) [POPG, palmitoyl-oleoyl-phosphatidylglycerol]
- inhibition of the MD-2/TLR4 interaction (MD-2 binding to sTLR4; lipid competitor up to 200 μg/ml): approximately 75%
- inhibition of the MD-2/TLR4 interaction (MD-2 binding to sTLR4; low levels of lipid competitor (20 μg/ml)): 40%
- activity of TLR4 (TNFα production) (TLR4): inhibits
- activity of TLR7 (IL-8 production) (TLR7): inhibits
